The text below walks through data of publication PMC5428509, “Irreversible inhibition of BTK kinase by a novel highly selective inhibitor CHMFL-BTK-11 suppresses inflammatory response in rheumatoid arthritis model” (Scientific Reports, 2017).

Structures are written as SMILES.

Holding throughout (assay): biochemical
Parameters in all cases: KinomeScan competition binding panel (DiscoveRx), percent of control at 1 uM
Holding throughout (conditions): read-out: Percent Control

Experiment [1] addresses CAMKK1 (Homo sapiens, UniProt Q8N5S9). The method in brief: (§1)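 Selectivity profiled across 456 kinases/mutants by KinomeScan binding technology.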
Experiment [2] has as its target IRAK3 (Homo sapiens, UniProt Q9Y616). The gist of the method:
as §1

The target of experiment [3] is T1, PFTAIRE2 (Homo sapiens, UniProt Q96Q40).
T1 construct: gene CDK15
The gist of the method:
as §1

For experiment [4], the target named is MYLK2 (Homo sapiens, UniProt Q9H1R3). The gist of the method:
as §1

Experiment [5] concerns the target MUSK (Homo sapiens, UniProt O15146). The gist of the method: as §1
Experiment [6] addresses T2, RSK2(Kin.Dom.2-C-terminal) (Homo sapiens, UniProt P51812).
T2 construct: gene RPS6KA3; Kin.Dom.2-C-terminal
The gist of the method:
as §1

The target in experiment [7] is T3, ABL1(T315I)-nonphosphorylated (Homo sapiens, UniProt P00519, T315I).
T3 construct: nonphosphorylated
The gist of the method: as §1

The target in experiment [8] is PIK3CA (Homo sapiens, UniProt P42336). The method in brief: as §1
The target in experiment [9] is T4, DCAMKL3 (Homo sapiens, UniProt Q9C098).
T4 construct: gene DCLK3
The gist of the method: as §1

In experiment [10] the target is PAK3 (Homo sapiens, UniProt O75914). The gist of the method:
as §1

The target of experiment [11] is KIT(D816V) (Homo sapiens, UniProt P10721, D816V). The gist of the method: as §1
Experiment [12] deals with RET(V804L) (Homo sapiens, UniProt P07949, V804L). The method in brief:
as §1

Experiment [13] deals with T5, SgK110 (Homo sapiens, UniProt P0C264).
T5 construct: gene SBK3
The method in brief: as §1

The target of experiment [14] is T6, RPS6KA5(Kin.Dom.2-C-terminal) (Homo sapiens, UniProt O75582).
T6 construct: Kin.Dom.2-C-terminal
The gist of the method:
as §1

In experiment [15] the target is PIK3CG (Homo sapiens, UniProt P48736). The method in brief: as §1
Experiment [16] has as its target PLK3 (Homo sapiens, UniProt Q9H4B4). The method in brief: as §1
The target of experiment [17] is T7, ABL1(T315I)-phosphorylated (Homo sapiens, UniProt P00519, T315I).
T7 construct: phosphorylated
The method in brief:
as §1

The target in experiment [18] is T8, RSK2(Kin.Dom.1-N-terminal) (Homo sapiens, UniProt P51812).
T8 construct: gene RPS6KA3; Kin.Dom.1-N-terminal
The gist of the method: as §1

The target of experiment [19] is SNRK (Homo sapiens, UniProt Q9NRH2). The gist of the method: as §1
The target in experiment [20] is FRK (Homo sapiens, UniProt P42685). The gist of the method: as §1
FRK, sequence (P42685 whole entry): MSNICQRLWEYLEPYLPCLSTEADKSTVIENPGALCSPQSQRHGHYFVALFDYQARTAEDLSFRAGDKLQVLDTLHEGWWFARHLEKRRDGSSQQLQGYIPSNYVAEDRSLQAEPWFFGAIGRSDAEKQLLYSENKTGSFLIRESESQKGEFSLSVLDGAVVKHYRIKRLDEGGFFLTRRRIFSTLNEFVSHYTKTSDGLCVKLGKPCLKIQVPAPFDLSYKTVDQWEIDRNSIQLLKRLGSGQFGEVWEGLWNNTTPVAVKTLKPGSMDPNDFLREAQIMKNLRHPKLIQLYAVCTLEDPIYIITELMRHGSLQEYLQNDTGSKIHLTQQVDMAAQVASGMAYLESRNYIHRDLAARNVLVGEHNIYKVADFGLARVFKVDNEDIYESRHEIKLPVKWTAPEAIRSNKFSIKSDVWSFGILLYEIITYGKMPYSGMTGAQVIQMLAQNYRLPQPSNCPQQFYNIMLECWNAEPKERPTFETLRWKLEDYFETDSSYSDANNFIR

T5 sequence (P0C264 whole entry): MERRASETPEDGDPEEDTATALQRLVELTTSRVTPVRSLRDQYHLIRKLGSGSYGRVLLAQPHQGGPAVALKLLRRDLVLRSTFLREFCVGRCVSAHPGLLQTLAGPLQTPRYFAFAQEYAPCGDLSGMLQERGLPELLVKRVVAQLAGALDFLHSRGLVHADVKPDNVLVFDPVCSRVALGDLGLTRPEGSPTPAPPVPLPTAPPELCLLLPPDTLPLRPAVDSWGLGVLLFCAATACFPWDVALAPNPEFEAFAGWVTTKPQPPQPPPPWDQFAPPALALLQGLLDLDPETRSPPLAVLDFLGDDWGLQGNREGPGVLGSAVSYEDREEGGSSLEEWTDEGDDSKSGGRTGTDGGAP
IRAK3, sequence (Q9Y616 whole entry): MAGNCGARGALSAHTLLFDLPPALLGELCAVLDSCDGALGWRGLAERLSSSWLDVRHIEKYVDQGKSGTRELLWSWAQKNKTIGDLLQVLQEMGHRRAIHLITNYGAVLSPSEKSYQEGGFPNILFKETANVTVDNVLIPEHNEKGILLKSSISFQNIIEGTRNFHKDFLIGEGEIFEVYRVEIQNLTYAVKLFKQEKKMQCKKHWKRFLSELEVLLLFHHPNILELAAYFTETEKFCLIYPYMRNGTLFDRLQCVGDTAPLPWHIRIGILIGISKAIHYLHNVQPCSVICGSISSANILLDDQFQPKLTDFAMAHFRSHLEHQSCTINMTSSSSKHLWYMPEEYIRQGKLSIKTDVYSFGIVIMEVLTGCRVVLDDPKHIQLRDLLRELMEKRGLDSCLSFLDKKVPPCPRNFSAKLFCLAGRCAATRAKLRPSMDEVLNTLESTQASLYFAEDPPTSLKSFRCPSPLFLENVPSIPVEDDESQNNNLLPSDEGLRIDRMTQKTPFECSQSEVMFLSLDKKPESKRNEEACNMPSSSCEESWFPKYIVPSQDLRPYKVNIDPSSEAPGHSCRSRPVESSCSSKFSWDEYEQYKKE
T8 sequence (P51812 whole entry): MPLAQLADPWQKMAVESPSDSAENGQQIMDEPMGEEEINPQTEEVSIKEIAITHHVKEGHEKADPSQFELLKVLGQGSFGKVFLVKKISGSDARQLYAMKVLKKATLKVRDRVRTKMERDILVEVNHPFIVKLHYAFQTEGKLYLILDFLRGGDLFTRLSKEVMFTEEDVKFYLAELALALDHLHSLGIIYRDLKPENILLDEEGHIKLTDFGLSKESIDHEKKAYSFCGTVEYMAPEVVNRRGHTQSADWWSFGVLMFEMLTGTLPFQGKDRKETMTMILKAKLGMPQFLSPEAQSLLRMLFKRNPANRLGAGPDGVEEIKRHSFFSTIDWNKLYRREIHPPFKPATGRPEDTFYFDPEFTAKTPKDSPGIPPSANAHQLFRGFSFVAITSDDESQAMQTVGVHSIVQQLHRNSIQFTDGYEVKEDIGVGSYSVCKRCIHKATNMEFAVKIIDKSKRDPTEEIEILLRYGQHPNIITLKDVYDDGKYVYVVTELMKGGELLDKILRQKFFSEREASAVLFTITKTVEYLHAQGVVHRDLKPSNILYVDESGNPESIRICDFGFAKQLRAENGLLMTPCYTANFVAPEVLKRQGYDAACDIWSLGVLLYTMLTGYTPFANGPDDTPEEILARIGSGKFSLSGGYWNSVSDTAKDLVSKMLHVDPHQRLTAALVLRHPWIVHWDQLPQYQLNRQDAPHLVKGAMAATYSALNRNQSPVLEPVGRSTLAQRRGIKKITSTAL
T2 sequence (P51812 whole entry): as above
MUSK, sequence (O15146 whole entry): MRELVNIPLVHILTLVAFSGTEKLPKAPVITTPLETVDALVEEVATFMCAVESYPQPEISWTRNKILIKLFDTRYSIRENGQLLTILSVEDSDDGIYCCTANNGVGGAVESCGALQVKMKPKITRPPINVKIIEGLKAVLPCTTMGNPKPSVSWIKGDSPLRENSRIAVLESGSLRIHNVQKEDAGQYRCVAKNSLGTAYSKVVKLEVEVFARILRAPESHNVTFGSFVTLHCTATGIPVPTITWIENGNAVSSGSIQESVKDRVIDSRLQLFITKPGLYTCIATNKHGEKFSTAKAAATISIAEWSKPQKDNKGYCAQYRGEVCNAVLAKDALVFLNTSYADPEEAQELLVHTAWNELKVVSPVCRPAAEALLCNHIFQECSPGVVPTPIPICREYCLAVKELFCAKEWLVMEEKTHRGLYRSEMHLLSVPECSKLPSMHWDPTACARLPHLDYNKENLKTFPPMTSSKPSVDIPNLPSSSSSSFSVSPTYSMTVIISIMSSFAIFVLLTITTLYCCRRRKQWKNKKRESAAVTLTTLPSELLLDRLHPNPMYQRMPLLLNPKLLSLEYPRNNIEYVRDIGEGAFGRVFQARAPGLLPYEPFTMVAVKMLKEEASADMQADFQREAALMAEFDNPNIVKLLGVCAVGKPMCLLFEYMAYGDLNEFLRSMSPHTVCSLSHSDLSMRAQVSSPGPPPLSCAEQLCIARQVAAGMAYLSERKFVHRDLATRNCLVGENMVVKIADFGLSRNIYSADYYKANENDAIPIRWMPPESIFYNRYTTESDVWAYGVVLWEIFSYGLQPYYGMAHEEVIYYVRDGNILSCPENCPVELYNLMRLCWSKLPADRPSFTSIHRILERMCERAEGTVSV
PLK3, sequence (Q9H4B4 whole entry): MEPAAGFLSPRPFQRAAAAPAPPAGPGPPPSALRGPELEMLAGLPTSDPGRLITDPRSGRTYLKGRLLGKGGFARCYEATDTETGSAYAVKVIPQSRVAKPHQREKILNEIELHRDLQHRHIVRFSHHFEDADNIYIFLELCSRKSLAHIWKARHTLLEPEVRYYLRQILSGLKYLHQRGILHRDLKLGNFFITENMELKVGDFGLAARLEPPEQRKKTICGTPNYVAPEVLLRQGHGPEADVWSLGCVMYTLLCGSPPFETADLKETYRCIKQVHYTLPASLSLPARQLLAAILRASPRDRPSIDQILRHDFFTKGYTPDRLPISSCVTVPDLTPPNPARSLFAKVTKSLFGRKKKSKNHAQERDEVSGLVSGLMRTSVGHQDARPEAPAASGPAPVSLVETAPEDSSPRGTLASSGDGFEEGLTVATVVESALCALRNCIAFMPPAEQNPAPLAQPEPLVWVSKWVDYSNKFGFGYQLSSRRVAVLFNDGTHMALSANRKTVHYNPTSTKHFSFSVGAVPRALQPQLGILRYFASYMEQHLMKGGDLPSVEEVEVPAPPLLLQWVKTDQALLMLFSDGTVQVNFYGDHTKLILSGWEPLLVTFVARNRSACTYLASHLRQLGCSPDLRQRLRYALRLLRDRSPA
PAK3, sequence (O75914 whole entry): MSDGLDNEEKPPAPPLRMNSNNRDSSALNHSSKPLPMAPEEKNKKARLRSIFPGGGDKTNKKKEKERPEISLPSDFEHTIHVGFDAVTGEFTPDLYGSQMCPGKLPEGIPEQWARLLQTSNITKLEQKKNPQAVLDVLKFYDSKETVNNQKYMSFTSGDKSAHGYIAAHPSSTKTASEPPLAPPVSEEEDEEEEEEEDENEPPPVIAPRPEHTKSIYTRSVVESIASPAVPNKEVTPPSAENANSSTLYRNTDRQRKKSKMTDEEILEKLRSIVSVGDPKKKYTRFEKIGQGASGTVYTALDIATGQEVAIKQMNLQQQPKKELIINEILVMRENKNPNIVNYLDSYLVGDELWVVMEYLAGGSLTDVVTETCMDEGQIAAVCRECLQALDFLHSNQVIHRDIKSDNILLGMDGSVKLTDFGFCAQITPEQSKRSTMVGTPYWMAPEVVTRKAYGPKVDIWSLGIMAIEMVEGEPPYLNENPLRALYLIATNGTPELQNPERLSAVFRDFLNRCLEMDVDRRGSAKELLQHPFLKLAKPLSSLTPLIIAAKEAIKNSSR
T4 sequence (Q9C098 whole entry): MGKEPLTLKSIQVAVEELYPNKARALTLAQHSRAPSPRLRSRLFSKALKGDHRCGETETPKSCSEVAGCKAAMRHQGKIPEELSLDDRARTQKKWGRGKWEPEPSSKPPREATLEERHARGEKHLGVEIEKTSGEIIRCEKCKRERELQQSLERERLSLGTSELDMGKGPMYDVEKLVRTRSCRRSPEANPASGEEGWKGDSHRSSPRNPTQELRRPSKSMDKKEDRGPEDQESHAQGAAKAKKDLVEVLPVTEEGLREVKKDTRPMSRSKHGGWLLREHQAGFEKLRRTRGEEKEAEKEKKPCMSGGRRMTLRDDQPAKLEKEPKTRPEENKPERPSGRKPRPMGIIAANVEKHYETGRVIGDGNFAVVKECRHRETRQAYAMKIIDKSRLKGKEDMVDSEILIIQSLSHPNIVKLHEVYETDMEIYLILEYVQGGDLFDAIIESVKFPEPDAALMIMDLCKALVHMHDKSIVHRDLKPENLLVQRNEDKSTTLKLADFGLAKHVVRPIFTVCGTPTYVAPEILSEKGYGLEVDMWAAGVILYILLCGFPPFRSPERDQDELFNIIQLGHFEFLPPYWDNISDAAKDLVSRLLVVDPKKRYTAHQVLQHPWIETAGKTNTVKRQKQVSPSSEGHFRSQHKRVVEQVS

Regarding `C=CC(=O)Nc1cc(-n2c(=O)ccc3cnc4ccc(-n5cccn5)cc4c32)ccc1C` [CHMFL-BTK-11], the remaining binding at 1 µM in experiment [1] turned out to be 78%; in [2], 98%; in experiment [3] it was 100%; in experiment [4] it was 100%; in [5], 100%; in [6] it was 100%. The remaining binding at 1 µM in experiment [7] amounted to 79%; in experiment [8] it was 100%; in [9], 88%; in [10], 94%; in experiment [11], 97%; in experiment [12], 97%. Also, the remaining binding at 1 µM in experiment [13] stood at 90%; in experiment [14], 89%; in experiment [15], 73%; in experiment [16], 100%; in experiment [17] it was 100%; in [18], 85%. For the same molecule, the results for the remaining binding at 1 µM in experiment [19] and in [20] were 94% and 100%, respectively.
